The values that follow come from ChEMBL document CHEMBL1201862, “PubChem BioAssay data set” (2004).

Among the test systems are HL-60; ACHN; HOP-92; HCC 2998; SF-268; SNB-75; 786-0; T47D; LOX IMVI; KM12; NCI/ADR-RES; PC-3; Malme-3M; K562; CAKI-1; MOLT-4; SNB-19; A498; HCT-15.
Common to all, as to assay: NCI anticancer screen, dose series, 48 h

Values joined by “and” are separate entries in the source; they are usually repeats but may differ in a detail not shown here. Equal entries are not always repeated.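 1) Cells in 96-well plates. 2) Compound, 48 h, 5 concentrations. 3) Linear interpolation between surrounding doses. 4) Unreached endpoint = highest concentration. GI50 is the concentration that inhibits growth by half.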 Active and inactive are the calls of the source. Rule as the data show it: active = GI50 up to about 1.1 µM and inactive = higher.

Consider `O=C(Nc1cc2cc([N+](=O)[O-])ccc2oc1=O)c1cccs1`, for which the GI50 with HL-60 is 16.7 µM (inactive); with ACHN, 49 µM (inactive); with HOP-92, 37.6 µM (inactive); in the assay with HCC 2998, 48.3 µM (inactive); in the assay on SF-268 it was 33.2 µM (inactive); in the assay with SNB-75, 2.78 µM (inactive). Besides, the GI50 in the assay on 786-0 is 89.5 µM (inactive); in the assay on T47D, 38.5 µM (inactive); in the assay with LOX IMVI, 20.3 µM (inactive); with KM12, 24.5 µM (inactive); in the assay on NCI/ADR-RES, 62.2 µM (inactive); with PC-3, 37.8 µM (inactive). In addition, the GI50 is > 100 µM (inactive) with Malme-3M; 25.9 µM (inactive) in the assay with K562; 48.6 µM (inactive) with CAKI-1; 25.3 µM (inactive) with MOLT-4; > 100 µM (inactive) in the assay with SNB-19; > 100 µM (inactive) in the assay on A498.
With `CC(=O)Oc1ccc2c(c1)c1c(OC(C)=O)c3ccccc3c(OC(C)=O)c1n2Cc1cccc(C)c1`, the GI50 in the assay on HL-60 is 42.4 µM (inactive); in the assay on ACHN, 31.8 µM (inactive); in the assay on HOP-92, 1.5 µM (inactive); with HCC 2998, 22.8 µM (inactive); in the assay with SF-268 it was 29.8 µM (inactive); in the assay with HCT-15 it was 53.7 µM. For the same compound, the GI50 was 18.5 µM (inactive) in the assay on SNB-75; 36.2 µM (inactive) in the assay on 786-0; 21.8 µM (inactive) in the assay with T47D; 28.4 µM (inactive) with KM12; > 100 µM (inactive) with NCI/ADR-RES; 52.4 µM (inactive) in the assay with PC-3. Moreover, the GI50 in the assay on Malme-3M was 77.6 µM (inactive); with K562, 32.1 µM (inactive); in the assay on CAKI-1, 40.3 µM (inactive); in the assay on MOLT-4, 34.6 µM (inactive); in the assay on SNB-19, 67 µM (inactive); in the assay on A498 it was 29.3 µM (inactive).
For the compound `O=C(OCC1OC2OC(c3ccccc3)(n3ccc4c([N+](=O)[O-])ccnc43)OC2C1OC(=O)c1ccccc1)c1ccccc1` (centres undefined), the GI50 in the assay on HL-60 was > 100 µM (inactive); in the assay on ACHN, > 100 µM (inactive); in the assay with HOP-92 it was > 100 µM (inactive); in the assay on HCC 2998, > 100 µM (inactive); in the assay with HCT-15, over 100 µM; in the assay with 786-0, > 100 µM (inactive). Besides, the GI50 was 35 µM (inactive) in the assay on T47D; > 100 µM (inactive) with LOX IMVI; > 100 µM (inactive) in the assay on KM12; > 100 µM (inactive) in the assay with NCI/ADR-RES; > 100 µM (inactive) in the assay with PC-3; > 100 µM (inactive) in the assay with Malme-3M. For the same compound, the GI50 with K562, in the assay on CAKI-1, with MOLT-4, with SNB-19 and with A498 was > 100 µM (inactive) throughout.
Regarding `CC(=O)OCC1OC(n2c(C)c(C(C)=O)c(-c3ccco3)c(C#N)c2=S)C(OC(C)=O)C(OC(C)=O)C1OC(C)=O` (centres undefined), the GI50 with HL-60 is > 100 µM (inactive); with ACHN, > 100 µM (inactive); in the assay on HOP-92, 15.6 µM (inactive); with HCC 2998, > 100 µM (inactive); in the assay with SF-268 it was > 100 µM (inactive); with HCT-15, over 100 µM. In addition, the GI50 is > 100 µM (inactive) with 786-0; > 100 µM (inactive) with T47D; 64.3 µM (inactive) in the assay on LOX IMVI; > 100 µM (inactive) with KM12; > 100 µM (inactive) with NCI/ADR-RES; > 100 µM (inactive) in the assay on PC-3. Further, the GI50 was > 100 µM (inactive) with Malme-3M; > 100 µM (inactive) and 51.1 µM (inactive) with K562; 60 µM (inactive) in the assay on MOLT-4; > 100 µM (inactive) in the assay with SNB-19; 85.1 µM (inactive) in the assay on A498.
`O=C1/C(=C/c2ccc(Cl)cc2)N=C(c2ccccc2)N1C1Nc2cc3c(cc2S1)NC(N1C(=O)/C(=C/c2ccc(Cl)cc2)N=C1c1ccccc1)S3` (centres undefined): the GI50 was 0.336 µM (active) in the assay on HL-60; > 100 µM (inactive) in the assay on ACHN; 48.6 µM (inactive) with HOP-92; 61.1 µM (inactive) in the assay with HCC 2998; 27 µM (inactive) with SF-268; 49 µM in the assay on HCT-15. In addition, the GI50 is 87.3 µM (inactive) in the assay with 786-0; 28.8 µM (inactive) in the assay with T47D; 31.7 µM (inactive) in the assay with LOX IMVI; 54 µM (inactive) in the assay on KM12; 63.8 µM (inactive) in the assay on NCI/ADR-RES; 40.7 µM (inactive) with PC-3. The GI50 in the assay with K562 was 21.2 µM (inactive); with CAKI-1 it was > 100 µM (inactive); with MOLT-4 it was 4.14 µM (inactive); with A498, > 100 µM (inactive).
As to `CCOP(C)(=O)C(N)Cc1ccc(OC)c(OC)c1` (centres undefined), the GI50 was > 100 µM (inactive) in the assay with HL-60; > 100 µM (inactive) in the assay on ACHN; > 100 µM (inactive) in the assay on HOP-92; > 100 µM (inactive) with HCC 2998; > 100 µM (inactive) in the assay on SF-268; over 100 µM in the assay with HCT-15. The GI50 in the assay on SNB-75, with 786-0, in the assay on T47D, with LOX IMVI, in the assay on NCI/ADR-RES and with PC-3 was > 100 µM (inactive) in each case. The GI50 in the assay with Malme-3M, with K562, with CAKI-1, with MOLT-4, in the assay with SNB-19 and in the assay with A498 was > 100 µM (inactive) throughout.
Regarding `Cc1nc(O)nc2nc3ccc(Cl)cc3c(N(CCO)CCO)c12`, the GI50 with HL-60 was > 100 µM (inactive); in the assay on ACHN it was > 100 µM (inactive); in the assay on HOP-92, > 100 µM (inactive); with HCC 2998, > 100 µM (inactive); in the assay on SF-268 it was > 100 µM (inactive); in the assay with HCT-15, 94.4 µM. Besides, the GI50 in the assay on 786-0 is > 100 µM (inactive); with T47D, > 100 µM (inactive); in the assay on LOX IMVI, > 100 µM (inactive); in the assay with KM12, 40 µM (inactive); with NCI/ADR-RES it was > 100 µM (inactive); with PC-3, > 100 µM (inactive). Moreover, the GI50 in the assay on Malme-3M was > 100 µM (inactive); with K562, 85.7 µM (inactive); with CAKI-1, 96.2 µM (inactive); in the assay on MOLT-4 it was > 100 µM (inactive); in the assay on SNB-19 it was > 100 µM (inactive); with A498, > 100 µM (inactive).
For `Clc1cccc2[nH]ncc12`, the GI50 was > 100 µM (inactive) in the assay on HL-60; > 100 µM (inactive) in the assay on ACHN; > 100 µM (inactive) in the assay with HOP-92; > 100 µM (inactive) in the assay with HCC 2998; over 100 µM in the assay on HCT-15; 45.3 µM (inactive) in the assay on SNB-75. Further, the GI50 in the assay on 786-0 was > 100 µM (inactive); with T47D it was 16.6 µM (inactive); with LOX IMVI, 58.1 µM (inactive); in the assay on KM12, > 100 µM (inactive); with NCI/ADR-RES, > 100 µM (inactive); in the assay with PC-3 it was > 100 µM (inactive). Besides, the GI50 in the assay on K562 was > 100 µM (inactive); in the assay on CAKI-1, 68.4 µM (inactive); in the assay on MOLT-4 it was > 100 µM (inactive); in the assay on SNB-19 it was > 100 µM (inactive); with A498 it was > 100 µM (inactive).
